Reference: patent US20110118464A1, “HALOGENATED XANTHINE DERIVATIVES AND PRECURSORS THEREOF FOR ANTI-CANCER AND ANTI-METASTASIS ACTIVITY AND PREPARING METHOD THEREOF” (Kaohsiung Medical University, priority 2009, published 2011)

What was measured:
[1] = tested on: cAMP (cyclic adenosine monophophate); test: cAMP concentration in LNCaP cells; format: cell-based, human
[2] = tested on: cGMP (3′,5′-cyclic guanosine monophosphate); test: cGMP concentration in LNCaP cells; format: cell-based, human; settings: for cGMP concentration: 48 hours, FIG. 9(A)
[3] = tested on: human prostate carcinoma LNCaP; test: MTT assay, survival rate of LNCaP; settings: various concentrations, 24 and 48 hours, FIG. 7(A)
PZ-HPV-7 cells = settings: Liu et al., 2007; cited from earlier work
CDK4 protein = test: Immunoblotting of CDK4 in LNCaP; format: cell-based, human
Method: (§1) The amount of protein is determined by Bio-Rad protein reagent. Bovine serum albumin (BSA) of 0.1 mg/ml is the protein standard in the protein assay. Distilled water of 240 μl containing various known protein standards (the amounts of protein respectively are 0, 2, 4, 8, 12, 16, 20 and 30 μg) and 60 μl of Bio-Rad reagent are mixed gently in 96-well cell culture plate. The absorbance at the wavelength of 595 nm relative to the absorbance of blank test is determined using spectrophotometer (Hitachi U-200, Japan). A standard curve is evaluated from the known amounts of the protein standards and the absorbance thereof, and the amounts of the unknown proteins can be obtained according to this standard curve.
(§2) The quantified proteins are resolved by sodium dodecyl sulfate-polyacrylamide gel electrophoresis (SDS-PAGE), and the protein expression is evaluated by immunoblotting. The dilution rate of primary antibodies (i.e. anti-AR, anti-p21, anti-p27, anti-cyclin D, anti-cdk4 and anti-cdk6) is 1000 times, and that of anti-β-actin is 5000 times. The primary antibody detects the proteins for 1 hour, and the primary antibody is detected with the horseradish peroxidase (HRP)-conjugated secondary antibody for 1 hour. Finally, the detected protein are developed with enhanced chemical luminescence.

LNCaP prostate tumor = test: Tumor size in LNCaP-xenografted rude mice; format: in vivo; settings: for dose at which the significant effect is obtained: data not shown; for effect on LNCaP prostate tumor compared with the control: once per day for two months
Method: In addition to observe the inhibition effect of the halogenated xanthine derivatives on the cancer cell lines in the cellular level, the animal experiments are further performed. LNCaP-xenografted rude mice are injected intraperitoneally with KMUP-1 ([…]) and dosed orally with KMUP-1 (200 and 400 mg/kg) respectively once per day, and a continuity for two months. […] The significant effect can be obtained (data not shown) when KMUP-1 is 100 mg/kg. […] The significant effect can be obtained (data not shown) when KMUP-1 is 200 mg/kg.

[4] = tested on: human prostate epithelial PZ-HPV-7; settings: Liu et al., 2007; cited from earlier work
Cyclin D protein = test: Immunoblotting of Cyclin D in LNCaP; format: cell-based, human
Method: as §1, §2

p27 protein = test: Immunoblotting of p27 in LNCaP; format: cell-based, human
Method: as §1, §2

[5] = tested on: human prostate carcinoma LNCaP; test: Analysis of cell cycle in LNCaP; format: cell-based; settings: increased concentrations, 24 and 48 hours, FIG. 8
Method: The counted cells (10^5 cells/ml×3 ml) are seeded in the 6-well cell culture plate for 24 hours for attaching on the bottom of the cell culture plate, then DMEM/F12 medium without fetal bovine serum (FBS) is added therein for further incubation for 24 hours. Next, the medium is replaced with DMEM/F12 supplemented with 10% FBS, and the drugs at different concentrations are respectively added therein for reacting 24 and 48 hours. The cellular inoculate is harvested, and the wells are washed with phosphate buffered saline (PBS) for twice or triplet. The cells are eluted with 0.25% trypsin-0.02% EDTA, and are collected with the original inoculate in the centrifuge tube which is centrifuged at 4° C. at 1250×g (1200 rpm) for 5 minutes. Next, the supernatant is discarded and the pellet is resuspended in 1 ml PBS and the resuspended cells are transferred to an eppendorf tube which is centrifuged once again. The supernatant is discarded, and the cells are fixed with 300 μl PBS (4° C.) and 700 μl of 99.5% ethanol (50, 50, 100, 100, 200 and 200 μl ethanol respectively and sequentially added to make the cells resuspended in the well) for 30 minutes. […] The cells are transferred into a tube, and the cells are detected using CyFlow® cytometer. The ratios of G0/G1, S and G2/M phases are determined using multicycle DNA analysis software.

[6] = tested on: dihydrotestosterone receptor; test: Dihydrotestosterone receptor expression in LNCaP; format: cell-based, human; settings: 100 μM, 48 hours, FIG. 10(B)
Method: as §1, §2

p21 protein = test: Immunoblotting of p21 in LNCaP; format: cell-based, human
Method: as §1, §2

Bax = Bax expression in LNCaP; format: cell-based, human; settings: various concentrations, 48 hours, FIG. 16(A)
Bcl-2 = Bcl-2 expression in LNCaP; format: cell-based, human; settings: various concentrations, 48 hours, FIG. 16(B)
p21 = settings: Liu et al., 2007; cited from earlier work
[7] = Body weight of LNCaP-xenografted rude mice; format: in vivo
AR (androgen receptor) = test: Immunoblotting of AR in LNCaP; format: cell-based, human; settings: 100 μM, 48 hours, FIG. 10(A)
Method: as §1, §2

[8] = tested on: human prostate carcinoma DU145; test: MTT assay, survival rate of DU145; settings: various concentrations, 24 and 48 hours, FIG. 7(B)
[9] = tested on: human tongue squamous cell carcinoma SCC-25; test: MTT assay, survival rate of SCC-25; settings: 0.1-100 μM, 24 and 48 hours, FIG. 2
Bax/Bcl-2 ratio = Bax/Bcl-2 ratio in LNCaP; format: cell-based, human; settings: various concentrations, 48 hours, FIG. 16(C)
[10] = tested on: human prostate carcinoma PC-3; test: MTT assay, survival rate of PC-3; settings: various concentrations, 24 and 48 hours, FIG. 7(C)

Question: For `Nc1ncnc2c1ncn2C1CCCO1` (stereo not drawn) [SQ22536, reference compound], which “antagonism of the KMUP-1 effect on cAMP” value ([1]; 10 μM SQ22536 with 100 μM KMUP-1, 48 hours) is on record?
Answer: can antagonize the improved effect of KMUP-1

Question: For `O=c1onc2cnc3ccccc3n12` [ODQ, 1H-[1,2,4]oxadiazolo[4,3-a]quinoxalin-1-one, reference compound], which “antagonism of the KMUP-1 effect on cGMP” value ([2]; 1 μM ODQ with KMUP-1, 48 hours) is on record?
Answer: antagonists to each other

Question: Which results are given for `Cn1c(=O)c2c(ncn2CCN2CCN(c3ccccc3Cl)CC2)n(C)c1=O` [KMUP-1, 7-[2-[4-(2-chlorobenzene)piperazinyl]ethyl]-1,3-dimethylxanthine]?
Answer: survival rate relative to the control [3]: decrease with the increased concentrations of KMUP-1; effect on cell cycle of PZ-HPV-7 (PZ-HPV-7 cells): cease of cell cycle at G0/G1 phase; CDK4 expression at 100 μM relative to that at 1 μM (CDK4 protein; 48 hours): 50%; CDK4 expression (CDK4 protein; various concentrations, 24 and 48 hours, FIG. 14): would be decreased; LNCaP prostate tumor size (LNCaP prostate tumor; injected subcutaneously, 100 and 150 mg/kg, FIG. 17(A)): does not enlarge anymore; dose at which the significant effect is obtained (LNCaP prostate tumor; intraperitoneal injection): 100 mg/kg; effect on LNCaP prostate tumor compared with the control (LNCaP prostate tumor; intraperitoneal injection): can significantly eliminate the LNCaP prostate tumor; dose at which the significant effect is obtained (LNCaP prostate tumor; oral dosage): 200 mg/kg; effect on LNCaP prostate tumor compared with the control (LNCaP prostate tumor; oral dosage): can significantly eliminate the LNCaP prostate tumor; LNCaP prostate tumor size (LNCaP prostate tumor; orally dosed, 400 mg/kg, FIG. 18(A)): does not enlarge anymore; growth of PZ-HPV-7 [4]: can inhibit the growth; Cyclin D expression at 100 μM relative to that at 1 μM (Cyclin D protein; 24 hours): one ninth; Cyclin D expression at 100 μM relative to that at 1 μM (Cyclin D protein; 48 hours): 20%; Cyclin D expression (Cyclin D protein; various concentrations, 24 and 48 hours, FIG. 13): would be decreased; p27 expression at 100 μM relative to that at 1 μM (p27 protein; 24 hours): twice; p27 expression (p27 protein; various concentrations, 24 and 48 hours, FIG. 12): would be increased; effect on cell cycle [5]: cease in G0/G1 phase and tend to sub-G1 phase; dihydrotestosterone receptor expression [6]: relatively low; p21 expression at 100 μM relative to that at 1 μM (p21 protein): four times; p21 expression (p21 protein; various concentrations, 24 and 48 hours, FIG. 11): would be increased; Bax expression (Bax): has no difference with the increased concentration of KMUP-1; Bcl-2 expression (Bcl-2): decreases with the increased concentration of KMUP-1; p21 expression in PZ-HPV-7 (p21): increase p21 expression; cGMP concentration ([2]; KMUP-1 individually): increases the content of cGMP; cGMP concentration ([2]; together with 1 μM ODQ): the increased effect is not significant as KMUP-1 individually functioned on LNCaP cells; cAMP concentration versus 100 μM KMUP-1 individually ([1]; 100 μM KMUP-1 plus 10 μM SQ22536, 48 hours): can decrease the amount of cAMP in LNCaP cells; cAMP concentration ([1]; KMUP-1 individually, 48 hours, FIG. 9(B)): increases the amount of cAMP in LNCaP cells; body weight, experimental group versus control group ([7]; dosed orally, eight weeks, FIG. 18(B)): do not have significant difference; body weight ([7]; subcutaneous injection, FIG. 17(B)): can decrease the body weight; AR expression (AR (androgen receptor)): completely inhibited; survival rate relative to the control [8]: decrease with the increased concentrations of KMUP-1; survival rate relative to the control [9]: decreases with the increased concentrations of KMUP-1; Bax/Bcl-2 ratio (Bax/Bcl-2 ratio): increases with the increased concentration of KMUP-1; survival rate relative to the control [10]: decrease with the increased concentrations of KMUP-1
